Tests used:
Type in all cases: cell-based
KCNQ2-R213A/KCNQ3-R242A = KCNQ2-R213A/KCNQ3-R242A (Homo sapiens, UniProt O43525+O43526, R213A/R242A); test: TEVC of RA/RA mutant KCNQ2/3; conditions: GABA up to 1 mM
Excerpt: We generated cRNA transcripts encoding human KCNQ1, KCNQ2, KCNQ3, KCNQ4, KCNQ5 or GLRA1 (NM_001146040) (GenScript, Piscataway, NJ, USA) by in vitro transcription using the T7 polymerase mMessage mMachine kit (Thermo Fisher Scientific), after vector linearization, from cDNA sub-cloned into plasmids incorporating Xenopus laevis β-globin 5′ and 3′ UTRs flanking the coding region to enhance translation and cRNA stability. We quantified cRNA by spectrophotometry. […] We injected defolliculated stage V and VI Xenopus laevis oocytes (Ecocyte Bioscience, Austin, TX and Xenoocyte, Dexter, MI) with KCNQ channel α subunit (5-20 ng) or GLRA1 (20 ng) cRNAs. We incubated the oocytes at 16 °C in Barth’s saline solution (Ecocyte Bioscience) containing penicillin and streptomycin, with daily washing, for 2–5 days prior to two-electrode voltage-clamp (TEVC) recording.
For recording, oocytes were placed in a small-volume oocyte bath (Warner) and viewed them with a dissection microscope. […] Currents were recorded in response to voltage pulses between −120 or −80 mV and + 40 mV at 20 mV intervals from a holding potential of −80 mV, to yield current-voltage relationships, current magnitude, and for quantifying activation rate. We analyzed data using Clampfit (Molecular Devices) and Graphpad Prism software (GraphPad, San Diego, CA, USA); values are stated as mean ± SEM. […]

KCNQ4 = KCNQ4 (Homo sapiens, UniProt P56696); test: TEVC of homomeric KCNQ4 expressed in Xenopus oocytes; conditions: dose response
Excerpt: We generated cRNA transcripts encoding human KCNQ1, KCNQ2, KCNQ3, KCNQ4, KCNQ5 or GLRA1 (NM_001146040) (GenScript, Piscataway, NJ, USA) by in vitro transcription using the T7 polymerase mMessage mMachine kit (Thermo Fisher Scientific), after vector linearization, from cDNA sub-cloned into plasmids incorporating Xenopus laevis β-globin 5′ and 3′ UTRs flanking the coding region to enhance translation and cRNA stability. We quantified cRNA by spectrophotometry. We generated mutant KCNQ2 and KCNQ3 cDNAs by site-directed mutagenesis using a QuikChange kit (Stratagene, San Diego, CA) and prepared the corresponding cRNAs as above. We injected defolliculated stage V and VI Xenopus laevis oocytes (Ecocyte Bioscience, Austin, TX and Xenoocyte, Dexter, MI) with KCNQ channel α subunit (5-20 ng) or GLRA1 (20 ng) cRNAs. We incubated the oocytes at 16 °C in Barth’s saline solution (Ecocyte Bioscience) containing penicillin and streptomycin, with daily washing, for 2–5 days prior to two-electrode voltage-clamp (TEVC) recording.
We performed TEVC at room temperature using an OC-725C amplifier (Warner Instruments, Hamden, CT) and pClamp10 software (Molecular Devices, Sunnyvale, CA) 2–5 days after cRNA injection as described in the section above. For recording, oocytes were placed in a small-volume oocyte bath (Warner) and viewed them with a dissection microscope. Chemicals were sourced from Sigma, Matrix Scientific and Santa Cruz. […] All stock solutions were diluted in bath solution on the day of experiments. KCNQ2/3 channel activation was screened for using either 30 µM or 100 µM concentrations of each of the six compounds, then dose responses were conducted as appropriate. Bath solution was (in mM): 96 NaCl, 4 KCl, 1 MgCl2, 1 CaCl2, 10 HEPES (pH 7.6). Compounds were introduced into the oocyte recording bath by gravity perfusion at a constant flow of 1 ml per minute for 3 min prior to recording. Pipettes were of 1–2 MΩ resistance when filled with 3 M KCl. Currents were recorded in response to voltage pulses between −120 or −80 mV and + 40 mV at 20 mV intervals from a holding potential of −80 mV, to yield current-voltage relationships, current magnitude, and for quantifying activation rate. We analyzed data using Clampfit (Molecular Devices) and Graphpad Prism software (GraphPad, San Diego, CA, USA); values are stated as mean ± SEM. We plotted raw or normalized tail currents versus prepulse voltage and fitted with a single Boltzmann function:1 g=(A1−A2)/1+exp(V12−V)∕VS+A2, where g is the normalized tail conductance, A1 is the initial value at −∞, A2 is the final value at +∞, V1/2 is the half-maximal voltage of activation and Vs the slope factor. Activation, deactivation, wash-in and washout kinetics were fitted with single exponential functions to yield a τ value.

KCNQ2 = KCNQ2 (Homo sapiens, UniProt O43526); test: Relative ion permeability of KCNQ2; set-up: dose or concentration left out as unconfirmed
Excerpt: According to the Goldman–Hodgkin–Katz (GHK) voltage equation:2 Erev=RT∕Fln(PK[K^+]O+PNa[Na]O+PCl[Cl]i)/(PK[K^+]i+PNa[Na]i+PCl[Cl]o), where Erev is the absolute reversal potential and P is permeability. This permits calculation of the relative permeability of each ion if concentrations on either side of the membrane are known. A modified version of this equation was used here to determine relative permeability of two ions in a system in which only the extracellular ion concentration was known. Thus, relative permeability of Rb^+, Cs^+, and Na^+ compared to K^+ ions was calculated for KCNQ2 and KCNQ3* by plotting the I/V relationships for each channel with each extracellular ion (100 mM) (using the voltage protocol shown in Fig. 9g) and comparing them to that with 100 mM extracellular K^+ ion to yield a change in reversal potential (ΔErev) for each ion compared to that of K^+. Permeability ratios for each ion (X) compared to K^+ were then calculated as3 ΔErev=Erev,X−Erev,K=lnPX/PK. […]

KCNQ3*-W265L = KCNQ3*-W265L (Homo sapiens, UniProt O43525, A315T/W265L); test: TEVC of homomeric KCNQ3*-W265L
Excerpt: We generated cRNA transcripts encoding human KCNQ1, KCNQ2, KCNQ3, KCNQ4, KCNQ5 or GLRA1 (NM_001146040) (GenScript, Piscataway, NJ, USA) by in vitro transcription using the T7 polymerase mMessage mMachine kit (Thermo Fisher Scientific), after vector linearization, from cDNA sub-cloned into plasmids incorporating Xenopus laevis β-globin 5′ and 3′ UTRs flanking the coding region to enhance translation and cRNA stability. We quantified cRNA by spectrophotometry. We generated mutant KCNQ2 and KCNQ3 cDNAs by site-directed mutagenesis using a QuikChange kit (Stratagene, San Diego, CA) and prepared the corresponding cRNAs as above. […]
We performed TEVC at room temperature using an OC-725C amplifier (Warner Instruments, Hamden, CT) and pClamp10 software (Molecular Devices, Sunnyvale, CA) 2–5 days after cRNA injection as described in the section above. […] Currents were recorded in response to voltage pulses between −120 or −80 mV and + 40 mV at 20 mV intervals from a holding potential of −80 mV, to yield current-voltage relationships, current magnitude, and for quantifying activation rate. We analyzed data using Clampfit (Molecular Devices) and Graphpad Prism software (GraphPad, San Diego, CA, USA); values are stated as mean ± SEM. […]

Question: Which results are given for `CS(=O)(=O)N(CC(=O)O)c1cccc(F)c1` [3FMSG]?
Answer: activation / sensitivity of RA/RA mutant KCNQ2/3 (KCNQ2-R213A/KCNQ3-R242A): larger reduction in sensitivity; effects on KCNQ4 (KCNQ4): negligible or much less potent effects; relative Na+ permeability (compared to K+) of KCNQ2 (KCNQ2): not KCNQ2; maximal efficacy, KCNQ3*-W265L versus KCNQ3* (KCNQ3*-W265L): reduced by half; reduction of sensitivity by the W265L mutation versus KCNQ3* (KCNQ3*-W265L): 44 fold

From paper PMC6825221, “In silico re-engineering of a neurotransmitter to activate KCNQ potassium channels in an isoform-specific manner” (Communications Biology, 2019)
